Source: patent US6379083B1, “Method for the remediation of soil contaminated with organic halide compounds” (Hazama Corporation, priority 1998, dated 2002)
≈ marks a conversion by molar mass, not a printed value. Where two headings read alike, the source gives them in different places.

Test: Solubility of volatile organic halide in carbonic acid aqueous solution (Example 3)
Type: physicochemical
Details: for solubility at 24 h: 20.7 °C, thermodynamic from solid, read-out: Detected amount of trichloroethylene (saturated solubility)
Procedure: Using a carbonic acid aqueous solution having carbonated ion-concentration of 7,700 mg/L (i.e., 7,700 ppm) and natural water (trade name: Eapin; carbonated ion-concentration of 0 mg/L), four kinds of carbonic acid aqueous solutions (i.e., carbonated ion-concentration: 340 mg/L, 920 mg/L, 1700 mg/L and 7,700 mg/L) were prepared.
Using a syringe, 0.14 g of excess trichloroethylene was added to the water or solution, and each linked part in the Glass-Vials was sealed by the use of Teflon tape. The mixture was stirred for 30 minutes using a magnetic stirrer, and allowed to stand for 24 hours. Thereafter, a supernatant fraction was quickly collected and extracted to give trichloroethylene. These procedures were performed at temperature of 20.7° C.
As for the above natural water and carbonic acid aqueous solutions before the injection into the glass-bialbin, their carbonated ion-concentrations were measured by means of neutralization titration. The titration was conducted according to strontium chloride/monobasic acid-base titration described in JIS K 0101 25.
To the supernatant fraction obtained above, n-hexane for test of remaining agriculture chemical was added in the same amount as the fraction, and vigorously stirred to give an n-hexane layer. The layer was analyzed by a gas chromatography in the following conditions:
Analyzer: GC-17A type available from Shimadzu Corp.
Column: AQUATAC 75 m×0.53 mmφ
Column Temperature: 210° C.

Question: With `ClC=C(Cl)Cl` [trichloroethylene] as the molecule, how does the solubility at 24 h (aqueous buffer, Carbonated ion concentration 340 mg/L) read?
Answer: 780 µg/mL (≈ 5.94 mM)

Question: And the solubility at 24 h (aqueous buffer, Carbonated ion concentration 920 mg/L)?
Answer: 1000 µg/mL (≈ 7.61 mM)

Question: What about the solubility at 24 h (aqueous buffer, Carbonated ion concentration 7700 mg/L) of the same molecule?
Answer: 1300 µg/mL (≈ 9.89 mM)

Question: What about the “Detected amount of trichloroethylene (saturated solubility)” value (Carbonated ion concentration 1700 mg/L, 20.7° C.) of the same molecule?
Answer: 1100 µg/mL

Question: And the solubility at 24 h (natural water (Eapin; carbonated ion concentration 0 mg/L), water, Carbonated ion concentration 0 mg/L (natural water))?
Answer: 750 µg/mL (≈ 5.71 mM)
